Here are results for 28 molecules from patent US20040023972A1, “Use of substituted imidazo[1,2-a]-pyridin-, -pyrimidin-and-pyrazin-3-yl-amine derivatives in the preparation of medicaments for inhibiting NOS” (Gruenenthal GmbH, priority 2000, published 2004).

For the experiment, the target named is T1, NO synthase (Rattus norvegicus, UniProt P29476).
T1 construct: the supernatant was then removed by decantation and frozen in portions at −80° C; from tissue; host or cells: rat cerebellum, 20,000 g supernatant of homogenate
Briefly: HTS-NOS assay (NOS assay): conversion of radioactive arginine, cation-exchanger filter plate. The conditions noted are these: for inhibition at 10 µM: read-out: HTS-NOS assay: % inhibition (10 μM). The experiment is classed as biochemical. The method, then: This assay enables the percentage inhibition of NO synthase by an active ingredient to be determined by measuring the NOS activity under the action of the active ingredient. NO synthase is mixed together with radioactively labelled arginine and the active ingredient under suitable conditions. After terminating the NO-forming reaction at a given time, the amount of unconverted arginine is determined directly or indirectly. A comparison of that amount with the amount of arginine that remains in a mixture of NOS and arginine without the addition of active ingredient and under otherwise identical conditions gives the % inhibition of NO synthase by the tested active ingredient. This assay can be carried out as follows:
(a) incubation of NO synthase with labelled arginine as substrate in a reaction vessel,
(b) separation of the labelled arginine from the labelled citrulline optionally formed as a product of the enzymatic reaction, at a time at which the citrulline concentration is increasing,
(c) measurement of the amount of arginine remaining in each case.
Separation is carried out over a filter plate membrane.
This NOS assay is suitable especially for “high throughput screening” (HTS) on microtitre plates (MTP).
In this HTS-NOS assay, radioactive arginine is used as substrate. The assay volume can be chosen in the range from 25 μl to 250 μl, according to the type of microtitre plate (MTP). Depending on the source of the enzyme used, co-factors and co-enzymes are added. Incubation of the batches on this microtitre plate (assay MTP) according to step (a) is carried out at room temperature and is for 5 to 60 minutes according to the enzyme activity used (units). At the end of the incubation (step (a)), the plate is placed into a cell harvester which is equipped with a MTP having a cation-exchanger membrane as the filter base (filter MTP). All batches of the assay MTP are transferred to the filter MTP and filtered off with suction over a cation-exchanger filter plate, a paper filter charged with phosphate groups. The filter MTP is then washed with buffer or water. By means of this procedure, the arginine substrate that remains is bound to the cation exchanger, while the enzymatically formed radioactive citrulline is washed out quantitatively. After drying the filter MTP and adding scintillation liquid, the bound arginine can be counted using a scintillation counter. An uninhibited NOS reaction is reflected in low radioactivity. An inhibited enzyme reaction means that the radioactive arginine has not been converted. This means that a high level of radioactivity is found on the filter.
Rat cerebella were used as the starting tissue. The animals were anaesthetized and sacrificed, the brain tissue, the cerebellum, was removed by dissection, 1 ml of enzyme preparation buffer was added per rat cerebellum (4° C.), and disintegration was carried out using a Polytron homogeniser for 1 minute at 6000 rpm, followed by centrifugation for 15 minutes at 4° C. and 20,000 g; the supernatant was then removed by decantation and frozen in portions at −80° C. (the precipitate was discarded).
96-well MTP having a well capacity of <250 μl were used.
Pipetting sequence: see Table 1.
When the pipetting operation was complete, a cover was placed on the MTP (assay MTP), and incubation was at 25° C. (room temperature (RT)) for from 5 to 60 minutes, according to the amount and activity of the enzyme used.
The contents of the assay MTP were then transferred with the aid of a 96-well cell harvester to a 96-well cation exchanger MTP (filter MTP) and filtered off with suction. This was followed by washing once with […] of H2O (from a bath).
The plate was then dried for 1 hour at 60° C. in a drying cabinet. The underside of the filter MTP was then accurately sealed from beneath with a “back seal”. 35 μl of scintillation fluid per well were then added by means of a pipette. The upper side of the plate was also sealed with a “top seal”. […]

Usually inhibition stands for how much of the control response was suppressed. `Cc1ccn2c(Nc3c(C)cccc3C)c(-c3cccc(Cl)c3Cl)nc2c1` [Example 47, [2-(2,3-Dichloro-phenyl)-7-methyl-imidazo[1,2-a]pyridin-3-yl]-(2,6-dimethyl-phenyl)-amine]: the inhibition at 10 µM was 69%.

As for `COc1cccc(-c2nc3c(C)cccn3c2NC(C)(C)CC(C)(C)C)c1OC` [Example 117, [2-(2,3-Dimethoxy-phenyl)-8-methyl-imidazo[1,2-a]pyridin-3-yl]-(1,1,3,3-tetramethyl-butyl)-amine], the inhibition at 10 µM was determined as 52%.

Regarding `Cc1ccn2c(NC(C)(C)CC(C)(C)C)c(-c3ccc(C4OCCO4)o3)nc2c1` [Example 41, [2-(5-[1,3]Dioxolan-2-yl-furan-2-yl)-7-methyl-imidazo[1,2-a]pyridin-3-yl]-(1,1,3,3-tetramethyl-butyl)-amine], the inhibition at 10 µM worked out at 57%.

With `CC(=O)N(c1c(-c2ccco2)nc2cc(C)cc(C)n12)C1CCCCC1` [Example 203, N-cyclohexyl-N-(2-furan-2-yl-5,7-dimethyl-imidazo[1,2-a]pyridin-3-yl)-acetamide], the inhibition at 10 µM was 60%.

Consider `Cc1cc(C)n2c(NC(C)(C)CC(C)(C)C)c(-c3cccc(O)c3)nc2c1` [Example 31, 3-[5,7-Dimethyl-3-(1,1,3,3-tetramethyl-butylamino)-imidazo[1,2-a]pyridin-2-yl]-phenol], for which the inhibition at 10 µM worked out at 60%.

Turning to `Cc1ccn2c(NC(C)(C)CC(C)(C)C)c(-c3ccco3)nc2c1` [Example 28, (2-Furan-2-yl-7-methyl-imidazo[1,2-a]-pyridin-3-yl)-(1,1,3,3-tetramethyl-butyl)-amine], the inhibition at 10 µM is 50%.

As to `CCCCN(C(C)=O)c1c(-c2cc(OC)c(OC)c(OC)c2)nc2cnccn12` [Example 283, N-butyl-N-[2-(3,4,5-trimethoxy-phenyl)-imidazo[1,2-a]pyrazin-3-yl]-acetamide], the inhibition at 10 µM was 51%.

On to `Cc1cc(C)n2c(NC(C)(C)C)c(-c3ccco3)nc2c1` [Example 25, Tert-butyl-(2-furan-2-yl-5,7-dimethyl-imidazo[1,2-a]pyridin-3-yl)-amine], for which the inhibition at 10 µM worked out at 60%.

As to `CC(=O)N(c1c(C)cccc1C)c1c(-c2ccc(C(=O)O)s2)nc2ccc(C)cn12` [Example 225, 5-{3-[acetyl-(2,6-dimethyl-phenyl)-amino]-6-methyl-imidazo[1,2-a]pyridin-2-yl}-thiophene-2-carboxylic acid], the inhibition at 10 µM was determined as 55%.

As for `CC(=O)N(c1c(-c2ccncc2)nc2cc(C)cc(C)n12)C(C)(C)CC(C)(C)C` [Example 146, N-(5,7-dimethyl-2-pyridin-4-yl-imidazo[1,2-a]pyridin-3-yl)-N-(1,1,3,3-tetramethyl-butyl)-acetamide], the inhibition at 10 µM is 59%.

On to `CC(=O)N(c1c(-c2cccc3ccccc23)nc2cc(C)ccn12)C(C)(C)C` [Example 204, N-tert-butyl-N-(7-methyl-2-naphthalen-1-yl-imidazo[1,2-a]pyridin-3-yl)-acetamide], for which the inhibition at 10 µM was determined as 54%.

With `COc1ccc(-c2nc3cc(C)ccn3c2NC(C)(C)CC(C)(C)C)cc1OC` [Example 6, [2-(3,4-Dimethoxy-phenyl)-7-methyl-imidazo[1,2-a]pyridin-3-yl]-(1,1,3,3-tetramethyl-butyl)-amine], the inhibition at 10 µM was determined as 53%.

Regarding `CC(=O)N(c1c(-c2ccccc2C(F)(F)F)nc2cc(C)ccn12)C1CCCCC1` [Example 164, N-cyclohexyl-N-[7-methyl-2-(2-trifluorO-methyl-phenyl)-imidazo[1,2-a]pyridin-3-yl]-acetamide], the “HTS-NOS assay: % inhibition (10 μM)” value is 61%.

With `Cc1ccc2nc(-c3ccncc3)c(NC(C)(C)CC(C)(C)C)n2c1` [Example 124, (6-Methyl-2-pyridin-4-yl-imidazo[1,2-a]-pyridin-3-yl)-(1,1,3,3-tetramethyl-butyl)-amine], the inhibition at 10 µM worked out at 68%.

`[C-]#[N+]CCCCCCNc1c(-c2ccccc2C)nc2cc(C)ccn12` [Example 97, Methylidyne-[6-(7-methyl-2-o-tolyl-imidazo[1,2-a]pyridin-3-ylamino)-hexyl]-ammonium]: the “HTS-NOS assay: % inhibition (10 μM)” value is 62%.

For `CC(=O)N(c1c(-c2cc(C)c(C)o2)nc2cccc(C)n12)C(C)(C)CC(C)(C)C` [Example 222, N-[2-(4,5-dimethyl-furan-2-yl)-5-methyl-imidazo[1,2-a]pyridin-3-yl]-N-(1,1,3,3-tetramethyl-butyl)-acetamide], the inhibition at 10 µM was 53%.

As to `Cc1ccn2c(NC(C)(C)CC(C)(C)C)c(-c3ccc(CO)o3)nc2c1` [Example 102, {5-[7-Methyl-3-(1,1,33-tetramethyl-butylamino)-imidazo[1,2-a]pyridin-2-yl]-furan-2-yl}-methanol], the “HTS-NOS assay: % inhibition (10 μM)” value came out at 59%.

Take `CCCCNc1c(C2CCCCC2)nc2cc(C)ccn12` [Example 30, Butyl-(2-cyclohexyl-7-methyl-imidazo[1,2-a]pyridin-3-yl)-amine]: the inhibition at 10 µM amounted to 56%.

In the case of `Cc1ccn2c(NC3CCCCC3)c(-c3ccccc3C(F)(F)F)nc2c1` [Example 13, Cyclohexyl-[7-methyl-2-(2-trifluorO-methyl-phenyl)-imidazo[1,2-a]pyridin-3-yl]-amine], the “HTS-NOS assay: % inhibition (10 μM)” value turned out to be 57%.

As to `CC(=O)N(c1c(-c2ccc(C)o2)nc2ccccn12)C(C)(C)C` [Example 220, N-tert-butyl-N-[2-(5-methyl-furan-2-yl)-imidazo[1,2-a]pyridin-3-yl]-acetamide], the inhibition at 10 µM came out at 61%.

Consider `[C-]#[N+]CCCCCCNc1c(-c2ccccc2OC)nc2cc(C)cc(C)n12` [Example 61, {6-[2-(2-Methoxy-phenyl)-5,7-dimethyl-imidazo[1,2-a]pyridin-3-ylamino]-hexyl}-methylidyne-ammonium], for which the “HTS-NOS assay: % inhibition (10 μM)” value is 73%.

Consider `Cc1cc(C)n2c(NC3CCCCC3)c(-c3ccncc3)nc2c1` [Example 2, Cyclohexyl-(5,7-dimethyl-2-pyridin-4-yl-imidazo[1,2-a]pyridin-3-yl)-amine], for which the inhibition at 10 µM came out at 62%.

Take `CC(=O)N(c1c(-c2ccc(C3OCCO3)o2)nc2cc(C)ccn12)C(C)(C)CC(C)(C)C` [Example 196, N-[2-(5-[1,3]dioxolan-2-yl-furan-2-yl)-7-methyl-imidazo[1,2-a]pyridin-3-yl]-N-(1,1,3,3-tetramethyl-butyl)-acetamide]: the inhibition at 10 µM came to 54%.

For `CSc1ccc(-c2nc3ncccn3c2N(C(C)=O)C(C)(C)C)s1` [Example 221, N-tert-butyl-N-[2-(5-methylsulfanyl-thiophen-2-yl)-imidazo[1,2-a]pyrimidin-3-yl]-acetamide], the inhibition at 10 µM came to 54%.

Turning to `CC(=O)N(c1c(-c2ccc(C(=O)O)s2)nc2cccc(C)n12)C(C)(C)C` [Example 183, 5-[3-(acetyl-tert-butyl-amino)-5-methyl-imidazo[1,2-a]pyridin-2-yl]-thiophene-2-carboxylic acid], the inhibition at 10 µM was determined as 50%.

Regarding `CC(=O)OCc1ccc(-c2nc3ncccn3c2N(C(C)=O)C(C)(C)CC(C)(C)C)o1` [Example 249, acetic acid 5-{3-[acetyl-(1,1,3,3-tetramethyl-butyl)-amino]-imidazo[1,2-a]-pyrimidin-2-yl}-furan-2-yl methyl ester], the “HTS-NOS assay: % inhibition (10 μM)” value stood at 54%.

With `CC(=O)N(c1c(-c2ccc(C(=O)O)s2)nc2ccccn12)C1CCCCC1` [Example 229, 5-[3-(acetyl-cyclohexyl-amino)-imidazo[1,2-a]pyridin-2-yl]-thiophene-2-carboxylic acid], the inhibition at 10 µM came out at 59%.

For the molecule `Cc1cc(C)n2c(NC3CCCC3)c(-c3ccc(-c4ccccc4[N+](=O)[O-])o3)nc2c1.Cl` [Example 305, Cyclopentyl-{5,7-dimethyl-2-[5-(2-nitro-phenyl)-furan-2-yl]-imidazo[1,2-a]pyridin-3-yl}-amine hydrochloride], the “NOS assay % inhibition” value (Table 5, concentration not given) was 55%.
